Source: PubChem BioAssay (NCI)
Where “and” joins values, the source holds several entries; their conditions need not be identical. Equal values may be shown once.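 Each compound was tested at five concentrations against cells in 96-well plates for 48 hours. GI50 is the concentration that inhibits growth by half. TGI: concentration producing complete growth inhibition.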

Assays:
Experiment in all cases: inhibition of tumour cell growth, NCI panel, 48 h
NCI-H522 lung = tested on: NCI-H522 lung
SK-MEL-28 melanoma = tested on: SK-MEL-28 melanoma
OVCAR-5 ovarian = tested on: OVCAR-5 ovarian
SF-295 CNS = tested on: SF-295 CNS
SR leukemia = tested on: SR leukemia
M14 melanoma = tested on: M14 melanoma
NCI/ADR-RES ovarian = tested on: NCI/ADR-RES ovarian
SN12C renal = tested on: SN12C renal
COLO 205 colon = tested on: COLO 205 colon
NCI-H226 lung = tested on: NCI-H226 lung

SMILES	TGI (NCI-H522 lung)	TGI (SK-MEL-28 melanoma)	TGI (OVCAR-5 ovarian)	TGI (SF-295 CNS)	TGI (SR leukemia)	TGI (M14 melanoma)	TGI (NCI/ADR-RES ovarian)	TGI (SN12C renal)	TGI (COLO 205 colon)	TGI (NCI-H226 lung)	GI50 (NCI-H522 lung)	GI50 (SK-MEL-28 melanoma)	GI50 (OVCAR-5 ovarian)	GI50 (SF-295 CNS)	GI50 (SR leukemia)	GI50 (M14 melanoma)	GI50 (NCI/ADR-RES ovarian)	GI50 (SN12C renal)	GI50 (COLO 205 colon)	GI50 (NCI-H226 lung)
OCCCN=C1CCCCC1	> 100 µM	> 100 µM	> 100 µM	> 100 µM	> 100 µM	> 100 µM	> 100 µM	> 100 µM	> 100 µM	> 100 µM	–	–	–	–	–	–	–	–	–	–
O=[N+]([O-])c1cccc(/C=N/Nc2ccc3ccccc3n2)c1O	7.52 µM	> 65.6 µM	48.3 µM	14.2 µM	21.4 µM	5.32 µM	3.5 µM	16.1 µM	9.48 µM	9.98 µM	–	–	–	–	–	–	–	–	–	–
S=c1ssnc1-c1cc2ccccc2o1	45.9 µM	30 µM	39.2 µM	33.8 µM	18.3 µM	60.7 µM	90.7 µM	32.1 µM	39.5 µM	54.4 µM	20.7 µM	15.1 µM	20.8 µM	14.3 µM	3.04 µM	16.5 µM	25.7 µM	13.8 µM	14.8 µM	23.2 µM
Clc1ccc2c(NCCNc3nc(N4CCOCC4)nc4ccccc34)ccnc2c1	3.8 µM	4.12 µM	12.6 µM	3.24 µM	2.03 µM	3.89 µM	15.5 µM	7.69 µM	4.46 µM	3.57 µM	2.03 µM	2.1 µM	3.34 µM	1.75 µM	0.313 µM	1.94 µM	3.73 µM	2.75 µM	2.02 µM	1.68 µM
Cn1c(=O)c(-c2ccccc2Cl)cc2cnc(NC3CCOCC3)nc21	> 25 µM	> 25 µM	> 25 µM	> 25 µM	> 25 µM	> 25 µM	> 25 µM	> 25 µM	> 25 µM	> 25 µM	12.6 µM	10.7 µM	18.5 µM	12.1 µM	8.3 µM	5.66 µM	12.9 µM	8.05 µM	9.61 µM	12.3 µM
CC1(C)CC(O)CC(C)(C)N1O	> 100 µM	> 100 µM	> 100 µM	> 100 µM	> 100 µM	> 100 µM	> 100 µM	> 100 µM	> 100 µM	> 100 µM	> 100 µM	–	–	–	–	–	–	–	–	> 100 µM
CC(C)(C)N/N=C(/Cc1nc2c3c(ccc2[nH]c1=O)C(=O)c1ccccc1C3=O)C(=O)NC1=C(Cl)C(=O)c2ccccc2C1=O	> 100 µM	> 100 µM	> 100 µM	> 100 µM	> 100 µM	> 100 µM	45.1 µM	> 100 µM	89.5 µM	88.8 µM	–	–	–	–	–	–	–	–	–	–
[Br][Pb]([c]1ccccc1)([c]1ccccc1)[c]1ccccc1	0.352 µM	0.342 µM	1.22 µM	–	> 100 µM	0.409 µM	0.561 µM	0.677 µM	0.356 µM	0.381 µM	0.158 µM	0.175 µM	0.289 µM	–	0.103 µM	0.195 µM	0.229 µM	0.228 µM	0.177 µM	0.173 µM
O=c1c(I)c[nH]cc1I	> 100 µM	> 100 µM	> 100 µM	> 100 µM	> 100 µM	> 100 µM	> 100 µM	> 100 µM	> 100 µM	> 100 µM	> 100 µM	> 100 µM	> 100 µM	> 100 µM	> 100 µM	> 100 µM	> 100 µM	> 100 µM	> 100 µM	> 100 µM
COc1ccc2nc3ccccc3c(NCCNCCO)c2c1	1.97 µM	3.08 µM	8.85 µM	2.62 µM	1.33 µM	2.24 µM	> 89 µM	7.7 µM	1.77 µM	3.38 µM	0.38 µM	1.19 µM	1.18 µM	0.484 µM	0.214 µM	0.709 µM	5.04 µM	0.533 µM	0.397 µM	0.947 µM
O=c1ccc(N=Nc2ccccc2)ccc1O	56.3 µM	32.9 µM	47.4 µM	20.9 µM	22.2 µM	28.5 µM	29.6 µM	34.6 µM	31.7 µM	24.3 µM	–	–	–	–	–	–	–	–	–	–
C=C1C(=O)OC2CC(C)C(/C=C/C(C)=O)=CCC12 (stereo unspecified)	> 100 µM	> 100 µM	> 100 µM	> 100 µM	> 100 µM	> 100 µM	> 100 µM	> 100 µM	> 100 µM	> 100 µM	–	–	–	–	–	–	–	–	–	–
C=CCC(N[C@@H](CO)c1ccccc1)c1ccc2ccccc2n1 (stereo partly specified)	> 100 µM	> 100 µM	> 100 µM	> 100 µM	65.5 µM	> 100 µM	> 100 µM	> 100 µM	> 100 µM	> 100 µM	64.6 µM	> 100 µM	> 100 µM	> 100 µM	17.2 µM	> 100 µM	> 100 µM	67.5 µM	> 100 µM	> 100 µM
Cc1cc(NC(=O)NCc2ccc(N3C(N)=NC(N)=NC3(C)C)cc2)ccc1S(=O)(=O)F	> 100 µM	> 100 µM	> 100 µM	> 100 µM	> 43.5 µM	> 100 µM	> 100 µM	> 100 µM	> 100 µM	> 100 µM	6.1 µM	17.7 µM	> 25.4 µM	1.57 µM	0.502 µM	1.51 µM	> 100 µM	0.833 µM	2.77 µM	> 61.2 µM
CC(C)=C[C@@H]1C[C@H](C)[C@H]2CC[C@H](C)c3c(O)c(OC4OC(C)C(O)C(O)C4O)c(C)c1c32 (stereo partly specified)	29.8 µM	32.1 µM	23.2 µM	30.9 µM	10.4 µM	24.9 µM	16.8 µM	23.5 µM	27.9 µM	33.1 µM	16.1 µM	18.1 µM	10.5 µM	15.9 µM	2.59 µM	11.5 µM	0.648 µM	11.3 µM	14.4 µM	17.3 µM
COc1ccc(-c2nsc3c2NC(=O)CC3c2ccsc2)cc1 (stereo unspecified)	4.25 µM	> 100 µM	> 100 µM	> 51.5 µM	> 100 µM	23.6 µM	0.278 µM	> 100 µM	0.846 µM	16.9 µM	0.139 µM	4.26 µM	0.773 µM	0.211 µM	0.0384 µM	0.167 µM	0.064 µM	0.83 µM	0.11 µM	2.15 µM
NNc1c(C(N)=O)c2c(N)ncnc2n1C1OC(CO)C(O)C1O (stereo unspecified)	–	0.759 µM and 0.192 µM	1.1 µM and 7.56 µM	9.44 µM and 2.91 µM	0.0194 µM and 0.0639 µM	0.0498 µM and 0.162 µM	0.289 µM and 0.754 µM	0.174 µM and 0.58 µM	0.0552 µM and 0.0342 µM	–	0.0328 µM and 0.152 µM	0.138 µM and 0.0291 µM	0.0578 µM and 0.309 µM	–	0.0252 µM	< 0.0127 µM and 0.0188 µM	0.0179 µM and 0.0374 µM	0.019 µM and 0.0443 µM	< 0.01 µM	0.251 µM
CC[C@H](C)[C@H](NC(=O)C12C3C4C1C1C2C3C41NC)C(=O)N(C)[C@H](C[C@@H](OC(C)=O)c1nc(C(=O)N[C@@H](Cc2ccccc2)C[C@H](C)C(=O)OC)cs1)C(C)C (stereo partly specified)	0.967 µM	> 14.3 µM	> 14.3 µM	> 9.29 µM	> 14.3 µM	5.54 µM	> 14.3 µM	> 14.3 µM	2.51 µM	> 14.3 µM	0.0561 µM	0.714 µM	> 7.57 µM	0.526 µM	0.0469 µM	0.42 µM	8.15 µM	0.896 µM	0.402 µM	> 7.85 µM
COc1cccc(/C=C2\N=C(c3ccccc3)OC2=O)c1	42.5 µM	> 100 µM	> 100 µM	> 100 µM	65.2 µM	> 100 µM	90.6 µM	> 100 µM	> 100 µM	> 100 µM	–	–	–	–	–	–	–	–	–	–
Nc1ccc(CC[C@H]2CCC/C=C/[C@@H]3C[C@H](O)C[C@H]3[C@H](O)/C=C/C(=O)O2)cc1	0.375 µM	1.43 µM	> 78.1 µM	> 100 µM	7.51 µM	10.7 µM	–	> 100 µM	0.034 µM	0.0704 µM	0.0816 µM	0.0244 µM	0.0481 µM	0.0476 µM	0.0348 µM	0.0337 µM	0.0376 µM	0.0639 µM	0.0188 µM	0.0226 µM
Cc1cc(N2CCC(N3CCCC3)CC2)nc(/N=C(\N)Nc2ccc(Cl)c(Cl)c2)n1	3.32 µM	3.41 µM	3.79 µM	3.55 µM	> 100 µM	3.67 µM	7.66 µM	10.9 µM	3.26 µM	3.69 µM	1.52 µM	1.91 µM	1.77 µM	1.84 µM	0.255 µM	1.81 µM	2.58 µM	2.7 µM	1.7 µM	1.79 µM
CCn1c(-c2nonc2N)nc2ccccc21	> 25 µM	> 25 µM	> 25 µM	> 25 µM	> 25 µM	> 25 µM	> 25 µM	> 25 µM	> 25 µM	> 25 µM	> 25 µM	> 25 µM	> 25 µM	> 25 µM	> 25 µM	> 25 µM	> 25 µM	> 25 µM	> 25 µM	> 14.9 µM
CCCCCCCCCCCCCCCCCc1nc(Cl)nc(Cl)c1Cl	> 100 µM	> 100 µM	> 100 µM	> 100 µM	> 100 µM	> 100 µM	> 100 µM	> 100 µM	> 100 µM	34.6 µM	–	–	–	–	–	–	–	–	–	–
O=[N+]([O-])c1ccccc1N=Nc1c(O)[nH]c2c(Cl)cccc12	26.1 µM	> 72.4 µM	> 100 µM	31.6 µM	> 69.6 µM	> 100 µM	> 60.5 µM	> 57.7 µM	> 100 µM	> 78.2 µM	–	–	–	–	–	–	–	–	–	–
O=C1/C(=C/c2ccc(Cl)cc2)CCC1CNc1ccc(Cl)cc1 (stereo unspecified)	3.89 µM	35.9 µM	> 77.3 µM	> 100 µM	43.8 µM	22.8 µM	67.1 µM	29.4 µM	15.8 µM	98 µM	–	–	–	–	–	–	–	–	–	–
Fc1ccccc1CN1COc2c(cc(Cl)c3cccnc23)C1	14.1 µM	18.7 µM	15.3 µM	12.1 µM	3.85 µM	12 µM	0.54 µM	1.57 µM	28.3 µM	2.97 µM	–	–	–	–	–	–	–	–	–	–
O=C1C(Cl)=C(Nc2ccc(S(=O)(=O)c3ccc(NC4=C(Cl)C(=O)c5ccccc5C4=O)cc3)cc2)C(=O)c2ccccc21	–	3.28 µM	3.81 µM	11.8 µM	7.19 µM	3.26 µM	35.2 µM	–	3.22 µM	18.6 µM	–	1.8 µM	1.92 µM	3.27 µM	1.27 µM	1.82 µM	3.68 µM	–	1.74 µM	3.1 µM
NC(=NCCCCCCN=C(N)/N=C(\N)Nc1ccc(Cl)cc1)/N=C(\N)Nc1ccc(Cl)cc1	–	6 µM	6.32 µM	2.35 µM	2.37 µM	6 µM	50 µM	5.77 µM	1.71 µM	9.12 µM	–	1.7 µM	1.83 µM	0.966 µM	0.945 µM	1.71 µM	4.09 µM	1.27 µM	0.951 µM	1.79 µM
Nc1nc(SCc2ccccc2CCl)c2[nH]cnc2n1	–	49.7 µM	34.6 µM	56 µM	> 100 µM	52.8 µM	67.7 µM	71.7 µM	36.1 µM	34.4 µM	–	17.7 µM	18.9 µM	18.7 µM	24.8 µM	17.8 µM	20.9 µM	21.2 µM	16.2 µM	17.1 µM
CCCN1C(=O)/C(=C/c2ccc(SC(F)(F)F)cc2)SC1=Nc1ccc(OC)cc1	–	> 50 µM	24 µM	38.1 µM	> 50 µM	> 50 µM	42.4 µM	> 50 µM	> 50 µM	> 50 µM	–	28.4 µM	7.84 µM	9.32 µM	37.7 µM	18.6 µM	11 µM	13.6 µM	> 50 µM	14.8 µM
